The values that follow come from publication PMC11951083, “Highly Specific Miniaturized Fluorescent Monoacylglycerol Lipase Probes Enable Translational Research” (Journal of the American Chemical Society, 2025).

One assay addresses T1, AR(h) (Homo sapiens, UniProt P10275).
T1 sequence (P10275 1-920): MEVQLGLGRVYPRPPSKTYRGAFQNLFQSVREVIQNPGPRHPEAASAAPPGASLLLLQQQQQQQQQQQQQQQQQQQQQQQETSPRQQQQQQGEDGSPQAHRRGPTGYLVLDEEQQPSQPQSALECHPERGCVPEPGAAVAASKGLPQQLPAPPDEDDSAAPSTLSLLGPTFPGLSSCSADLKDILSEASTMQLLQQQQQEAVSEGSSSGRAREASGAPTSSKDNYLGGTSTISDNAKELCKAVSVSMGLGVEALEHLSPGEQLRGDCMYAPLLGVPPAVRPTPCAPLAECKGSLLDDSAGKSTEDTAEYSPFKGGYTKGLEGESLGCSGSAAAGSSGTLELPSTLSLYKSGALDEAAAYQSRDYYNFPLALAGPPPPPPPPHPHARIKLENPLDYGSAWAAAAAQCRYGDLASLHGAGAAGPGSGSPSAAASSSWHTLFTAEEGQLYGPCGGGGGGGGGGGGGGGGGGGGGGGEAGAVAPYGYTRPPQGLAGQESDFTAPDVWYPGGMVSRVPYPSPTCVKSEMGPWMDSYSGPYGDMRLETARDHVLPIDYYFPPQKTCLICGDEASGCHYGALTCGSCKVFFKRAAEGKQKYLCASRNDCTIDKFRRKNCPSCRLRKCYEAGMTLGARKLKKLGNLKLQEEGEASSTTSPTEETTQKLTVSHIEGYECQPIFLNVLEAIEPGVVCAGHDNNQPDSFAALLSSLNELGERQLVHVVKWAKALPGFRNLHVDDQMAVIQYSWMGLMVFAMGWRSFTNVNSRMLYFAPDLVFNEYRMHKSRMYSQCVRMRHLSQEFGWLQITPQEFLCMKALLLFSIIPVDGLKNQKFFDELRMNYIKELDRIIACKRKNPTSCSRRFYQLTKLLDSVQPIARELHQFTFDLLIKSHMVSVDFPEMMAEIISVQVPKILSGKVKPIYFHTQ
Kind of assay: AR(h) (agonist radioligand). As to conditions: read-out: Inhibition AR(h) (agonist radioligand).

In the next assay the target is 5-HT2A (h) (Homo sapiens, UniProt P28223). As to the kind of experiment: 5-HT2A (h) (agonist radioligand). The following applies: read-out: Inhibition 5-HT2A (h) (agonist radioligand).
5-HT2A (h), sequence (P28223 whole entry): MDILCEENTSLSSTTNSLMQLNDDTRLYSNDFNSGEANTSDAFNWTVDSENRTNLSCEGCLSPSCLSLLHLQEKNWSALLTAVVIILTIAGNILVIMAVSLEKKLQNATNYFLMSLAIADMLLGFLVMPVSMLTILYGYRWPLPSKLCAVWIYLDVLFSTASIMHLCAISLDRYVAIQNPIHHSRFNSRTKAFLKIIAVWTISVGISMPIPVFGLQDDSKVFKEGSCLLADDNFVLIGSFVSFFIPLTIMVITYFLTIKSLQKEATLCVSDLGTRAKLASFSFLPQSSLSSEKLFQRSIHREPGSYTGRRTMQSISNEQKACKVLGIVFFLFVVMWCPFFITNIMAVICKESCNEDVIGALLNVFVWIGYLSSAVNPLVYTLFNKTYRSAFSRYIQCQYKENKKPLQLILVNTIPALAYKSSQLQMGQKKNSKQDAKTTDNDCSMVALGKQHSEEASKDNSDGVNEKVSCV
The target of the next assay is H3 (h) (Homo sapiens, UniProt Q9Y5N1). Kind of assay: H3 (h) (agonist radioligand). As to conditions: read-out: Inhibition H3 (h) (agonist radioligand).
H3 (h), sequence (Q9Y5N1 whole entry): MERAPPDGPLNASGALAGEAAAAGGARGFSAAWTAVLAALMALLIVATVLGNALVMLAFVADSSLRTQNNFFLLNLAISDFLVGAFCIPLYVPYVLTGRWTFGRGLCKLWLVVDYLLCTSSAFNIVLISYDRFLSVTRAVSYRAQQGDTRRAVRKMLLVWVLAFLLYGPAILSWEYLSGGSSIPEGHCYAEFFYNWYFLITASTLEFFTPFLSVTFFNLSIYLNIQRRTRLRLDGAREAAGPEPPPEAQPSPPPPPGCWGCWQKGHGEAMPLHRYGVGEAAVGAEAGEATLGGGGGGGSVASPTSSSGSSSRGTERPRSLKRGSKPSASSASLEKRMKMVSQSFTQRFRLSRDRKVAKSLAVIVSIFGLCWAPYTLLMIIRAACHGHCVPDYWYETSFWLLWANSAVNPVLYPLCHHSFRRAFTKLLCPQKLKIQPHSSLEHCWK
A further assay relates to HIV-1 protease. As to the kind of experiment: HIV-1 protease. As to conditions: 10 µM.
The target of another assay is D1 (h) (Homo sapiens, UniProt P21728). As to the kind of experiment: D1 (h) (antagonist radioligand). The following applies: read-out: Inhibition D1 (h) (antagonist radioligand).
D1 (h), sequence (P21728 whole entry): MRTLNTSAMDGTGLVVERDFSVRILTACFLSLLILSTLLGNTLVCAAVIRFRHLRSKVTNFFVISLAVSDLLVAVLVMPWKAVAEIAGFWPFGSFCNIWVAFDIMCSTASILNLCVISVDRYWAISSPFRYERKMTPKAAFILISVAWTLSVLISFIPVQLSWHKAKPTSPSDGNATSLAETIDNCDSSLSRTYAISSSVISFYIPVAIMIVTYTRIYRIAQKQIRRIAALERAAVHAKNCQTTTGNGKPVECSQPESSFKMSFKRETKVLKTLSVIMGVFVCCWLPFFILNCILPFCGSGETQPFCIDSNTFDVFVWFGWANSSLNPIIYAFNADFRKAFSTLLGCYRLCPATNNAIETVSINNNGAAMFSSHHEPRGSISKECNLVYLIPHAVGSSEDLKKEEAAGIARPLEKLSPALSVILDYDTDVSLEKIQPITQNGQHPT
The next assay has as its target T2, M2 (h) (Homo sapiens, UniProt P08172).
T2 sequence (P08172 1-466): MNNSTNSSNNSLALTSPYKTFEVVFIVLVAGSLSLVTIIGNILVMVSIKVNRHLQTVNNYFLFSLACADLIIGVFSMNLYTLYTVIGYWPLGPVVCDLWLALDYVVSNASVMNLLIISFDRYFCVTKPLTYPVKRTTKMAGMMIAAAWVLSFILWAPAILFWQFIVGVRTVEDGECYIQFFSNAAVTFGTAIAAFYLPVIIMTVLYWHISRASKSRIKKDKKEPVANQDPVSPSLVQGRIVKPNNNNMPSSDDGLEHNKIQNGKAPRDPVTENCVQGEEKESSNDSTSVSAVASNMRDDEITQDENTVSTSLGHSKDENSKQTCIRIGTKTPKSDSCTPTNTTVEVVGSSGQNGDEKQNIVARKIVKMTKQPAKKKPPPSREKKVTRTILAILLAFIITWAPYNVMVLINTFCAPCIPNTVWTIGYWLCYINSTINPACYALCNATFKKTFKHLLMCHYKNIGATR
Kind of assay: M2 (h) (antagonist radioligand). The following applies: read-out: Inhibition M2 (h) (antagonist radioligand).

Another assay deals with CDK2 (h) (cycA) (Homo sapiens, UniProt P24941). Kind of assay: CDK2 (h) (cycA). As to conditions: read-out: Inhibition CDK2 (h) (cycA).
The target in the next assay is PDE3B (h) (Homo sapiens, UniProt Q13370). As to the kind of experiment: PDE3B (h). As to conditions: read-out: Inhibition PDE3B (h).
PDE3B (h), sequence (Q13370 whole entry): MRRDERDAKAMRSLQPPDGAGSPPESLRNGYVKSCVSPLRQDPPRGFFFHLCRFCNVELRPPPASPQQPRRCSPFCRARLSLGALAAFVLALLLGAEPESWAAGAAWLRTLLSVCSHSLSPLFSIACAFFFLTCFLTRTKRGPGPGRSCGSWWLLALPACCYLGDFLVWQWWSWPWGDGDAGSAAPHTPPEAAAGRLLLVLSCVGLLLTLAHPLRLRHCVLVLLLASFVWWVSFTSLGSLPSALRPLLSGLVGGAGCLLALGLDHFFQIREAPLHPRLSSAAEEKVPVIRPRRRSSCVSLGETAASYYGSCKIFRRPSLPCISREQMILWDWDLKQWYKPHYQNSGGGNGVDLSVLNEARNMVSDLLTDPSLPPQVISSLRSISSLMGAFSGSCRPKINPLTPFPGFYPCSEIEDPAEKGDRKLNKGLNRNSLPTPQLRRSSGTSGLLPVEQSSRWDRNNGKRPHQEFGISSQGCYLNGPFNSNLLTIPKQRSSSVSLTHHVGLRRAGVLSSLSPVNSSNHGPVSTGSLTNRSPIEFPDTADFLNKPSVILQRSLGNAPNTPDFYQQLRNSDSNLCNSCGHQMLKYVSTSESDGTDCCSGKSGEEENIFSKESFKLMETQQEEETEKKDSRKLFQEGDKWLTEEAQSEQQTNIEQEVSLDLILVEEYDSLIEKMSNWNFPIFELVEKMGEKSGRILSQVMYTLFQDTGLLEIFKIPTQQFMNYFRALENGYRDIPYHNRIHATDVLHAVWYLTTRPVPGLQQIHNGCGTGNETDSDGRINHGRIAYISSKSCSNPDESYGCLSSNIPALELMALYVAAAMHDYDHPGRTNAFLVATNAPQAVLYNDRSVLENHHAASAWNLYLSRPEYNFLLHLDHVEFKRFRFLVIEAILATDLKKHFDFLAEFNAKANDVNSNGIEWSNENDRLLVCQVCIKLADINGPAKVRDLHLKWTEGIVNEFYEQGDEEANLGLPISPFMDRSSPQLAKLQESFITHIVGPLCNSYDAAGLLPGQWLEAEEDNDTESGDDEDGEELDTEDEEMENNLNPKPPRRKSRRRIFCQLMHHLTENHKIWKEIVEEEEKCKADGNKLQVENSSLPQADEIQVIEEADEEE
The next assay has as its target ACE (h) (Homo sapiens, UniProt P12821). As to the kind of experiment: ACE (h). As to conditions: read-out: Inhibition ACE (h).

ACE (h), sequence (P12821 30-1306): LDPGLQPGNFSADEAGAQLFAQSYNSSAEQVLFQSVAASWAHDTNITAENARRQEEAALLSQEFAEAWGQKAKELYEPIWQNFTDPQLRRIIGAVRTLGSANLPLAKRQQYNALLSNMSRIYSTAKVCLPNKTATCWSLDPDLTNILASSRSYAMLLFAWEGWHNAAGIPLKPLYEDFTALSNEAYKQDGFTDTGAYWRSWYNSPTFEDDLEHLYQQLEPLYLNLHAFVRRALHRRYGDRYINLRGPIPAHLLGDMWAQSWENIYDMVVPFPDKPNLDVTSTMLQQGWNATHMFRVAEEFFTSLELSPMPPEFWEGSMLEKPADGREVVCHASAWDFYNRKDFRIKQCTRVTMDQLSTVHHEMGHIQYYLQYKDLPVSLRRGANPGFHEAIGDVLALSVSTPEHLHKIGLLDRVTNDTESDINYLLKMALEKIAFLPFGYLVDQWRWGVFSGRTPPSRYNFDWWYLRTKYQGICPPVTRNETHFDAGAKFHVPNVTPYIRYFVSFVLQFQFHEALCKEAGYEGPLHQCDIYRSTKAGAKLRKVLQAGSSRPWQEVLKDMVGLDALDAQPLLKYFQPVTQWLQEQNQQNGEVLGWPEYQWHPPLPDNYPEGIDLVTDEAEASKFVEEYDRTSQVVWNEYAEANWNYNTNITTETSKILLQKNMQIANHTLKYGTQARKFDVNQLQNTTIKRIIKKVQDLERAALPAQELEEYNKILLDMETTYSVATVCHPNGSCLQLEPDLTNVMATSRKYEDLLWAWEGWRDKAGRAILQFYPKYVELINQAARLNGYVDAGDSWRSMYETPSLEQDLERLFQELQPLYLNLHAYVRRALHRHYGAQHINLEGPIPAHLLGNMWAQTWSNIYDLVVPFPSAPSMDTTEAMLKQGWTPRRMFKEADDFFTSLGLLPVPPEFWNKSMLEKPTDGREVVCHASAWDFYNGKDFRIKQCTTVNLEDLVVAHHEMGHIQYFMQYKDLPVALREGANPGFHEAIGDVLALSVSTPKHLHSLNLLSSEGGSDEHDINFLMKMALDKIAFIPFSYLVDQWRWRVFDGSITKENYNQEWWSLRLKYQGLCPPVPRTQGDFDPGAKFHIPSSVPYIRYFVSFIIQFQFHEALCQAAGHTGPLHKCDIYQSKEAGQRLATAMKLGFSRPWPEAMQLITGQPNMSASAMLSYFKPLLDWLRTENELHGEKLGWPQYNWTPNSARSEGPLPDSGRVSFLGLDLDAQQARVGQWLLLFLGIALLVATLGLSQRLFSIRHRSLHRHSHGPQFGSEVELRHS

As usually defined, the inhibition is the change of the read-out against control, counted positive when it falls. Turning to `O=C(O[C@H](CO)C(F)(F)F)N1CC2(CC(CC3=C4C=CC=[N+]4[B-](F)(F)n4cccc43)C2)C1` [Compound 1], the inhibition at 10 µM was -14.2% at AR(h); -13.2% on 5-HT2A (h); 5.2% at H3 (h); 8.1% on D1 (h); 35.1% at M2 (h); 7.8% at CDK2 (h) (cycA). The figures for the inhibition at 10 µM at PDE3B (h) and on ACE (h) were 15.9% and -10.4%, respectively. The “Inhibition HIV-1 protease” value in the assay on HIV-1 protease is on record as 10,30%.
As for `O=C1CO[C@H]2CCN(C(=O)N3CC4(CC(CC5=C6C=CC(c7ccc[nH]7)=[N+]6[B-](F)(F)n6cccc65)C4)C3)C[C@H]2N1` [Compound 4a], the inhibition at 10 µM was -1.4% at AR(h); 18.5% on 5-HT2A (h); 1.8% at H3 (h); 7.5% on D1 (h); -4.9% at M2 (h); -8.3% at CDK2 (h) (cycA). The results for the inhibition at 10 µM at PDE3B (h) and at ACE (h) were 13% and -21.2%, respectively. The “Inhibition HIV-1 protease” value with HIV-1 protease was 23,80%.
Turning to `O=C(OC(C(F)(F)F)C(F)(F)F)N1CC2(CC(CC3=C4C=CC=[N+]4[B-](F)(F)n4cccc43)C2)C1` [Compound 2], the inhibition at 10 µM is 4.2% on AR(h); -36.2% at 5-HT2A (h); -7.2% at H3 (h); -1.2% on D1 (h); 22.2% on M2 (h); 6.3% on CDK2 (h) (cycA). Further, the inhibition at 10 µM at PDE3B (h) is 6.3%; on ACE (h) it was -15.8%. Moreover, in the assay on HIV-1 protease, the “Inhibition HIV-1 protease” value is on record as -1,90%.
In the case of `O=C(N1CC2(CC(CC3=C4C=CC=[N+]4[B-](F)(F)n4cccc43)C2)C1)N1CC2(CC(n3cnc(C4CC4)n3)C2)C1` [Compound 5], the inhibition at 10 µM at AR(h) was -19.8%; at 5-HT2A (h), -9.2%; on H3 (h) it was -3.7%; on D1 (h), 7.3%; on M2 (h) it was 33.2%; at CDK2 (h) (cycA), 6.5%. In addition, the inhibition at 10 µM at PDE3B (h) is 10.7%; on ACE (h) it was -21.1%. For the same compound, in the assay with HIV-1 protease, the “Inhibition HIV-1 protease” value is 5,20%.
Take `O=C(OC(C(F)(F)F)C(F)(F)F)N1CC2(CC(CC3=C4C=CC(c5ccc[nH]5)=[N+]4[B-](F)(F)n4cccc43)C2)C1` [Compound 2a]: the inhibition at 10 µM on AR(h) was 6%; at 5-HT2A (h) it was -6.8%; at H3 (h), 7.3%; at D1 (h), 6.1%; at M2 (h) it was -13.1%; at CDK2 (h) (cycA) it was -5.8%. Also, the inhibition at 10 µM at PDE3B (h) is 12.6%; at ACE (h) it was -4.4%. For the same compound, in the assay with HIV-1 protease, the “Inhibition HIV-1 protease” value is reported as 8,30%.
